Test results reported in US11826402B2, “Combination therapy involving antibodies against claudin 18.2 for treatment of metastatic pancreatic adenocarcinoma” (Astellas Pharma Inc., priority 2013, dated 2023).
Converted amounts (≈) assume the structure as drawn.

Tests used:
BxPC3-LVT = experiment: Inhibition of proliferation (XTT viability assay, 4 days); assay type: cell-based, human
Experimental: (§1) To analyze dose-response curves of each chemotherapeutic agent, a proliferation assay was performed.
(§2) Cells were seeded in 96 well plates and after 4-6 hours gemcitabine or oxaliplatin was added in following concentrations: 1000, 500, 250, 100 and 20 ng/ml. The proliferation assay was incubated for 4 days at 37° C. and 5% CO2. 50 μl XTT complete reagent (50 parts XTT+1 part coupl. reagent mixed) was added and incubated at 37° C. Measurement of absorbance (cells plus supernatant) was done with the Tecan Safire after 3 h and 4 h. Inhibition of proliferation was calculated compared to medium values set as 100%. EC50 values for gemcitabine and oxaliplatin were calculated in the GraphPad Prism program.

DANG [1] = experiment: as above; assay type: cell-based, human
Experimental: as §1, §2

MiaPaCa-2-LVT [2] = experiment: as above; assay type: cell-based, human
Experimental: as §1, §2

Capan1-LVT = experiment: as above; assay type: cell-based; details: Homo sapiens, 96 h, 4 days exposure
Experimental: as §1, §2

DANG [3] = experiment: Cell cycle analysis; assay type: cell-based, human; details: 2 days
Experimental: The area of each bar is divided to indicate the percentage of cells in G0/G1, S and G2 phase.
Cells were plated in six-well plates, and 5-6 hours later chemotherapeutic agents were added for either 24 h 48 h or 3 days. Cells floating in the medium were combined with the adherent cell layer, which was trypsinized. Cells were washed. Either cell cycle analysis was started directly or cell surface staining was done before as described above. Cells are resuspended in 1 ml PBS and added to 3 ml 4% PFA. After 15 min fixation of cells at room temperature cells are pelleted and washed. For RNAse treatment cells were resuspended in 200 μl RNAse (10000 U/ml) plus 0.05% Triton X-100 and incubated for 30 min at 37° C. 1 ml PBS was added and samples were centrifuged and resuspended in 200 μl PBS/PJ 50 μg/ml. At least 30 min later samples were ready to be analyzed by flow cytometry. Cell cycle phase distribution was determined using FlowJo software to analyze DNA content histograms.

HUP-T3 = experiment: IMAB362-mediated ADCC assay; assay type: cell-based, human; details: at least 2 donors
HUP-T4 = experiment: IMAB362-mediated ADCC assay; assay type: cell-based, human; details: at least 2 donors
[4] = tested on: LVT pancreatic cancer cell lines ectopically expressing CLDN18.2; experiment: IF staining with IMAB362 under native conditions; assay type: binding, human; details: 8 LVT pancreatic cancer cell lines
Source text: IF analysis of pancreatic cancer cell lines (FIGS. 16A, 16B, 16D and 16E), lentivirally transduced pancreas cell lines (FIGS. 16G-16L) and KATO-III gastric cancer control cells (FIGS. 16C and 16F) expressing CLDN18.2. […] DAPI was used to stain the nuclei. Exposure times are indicated in each panel. FIG. 16G: BxPC3-LVT; FIG. 16H: CAPAN1-LVT; FIG. 16I: DANG-LVT; FIG. 16J: MiaPaCa2-LVT; FIG. 16K: Patu8902-LVT; FIG. 16L: Suit2-LVT.

[5] = tested on: CLDN18.2 on the cell surface of pancreatic cancer cell lines; experiment: Flow cytometry (FACS) of IMAB362 on pancreatic cancer cell lines; assay type: binding, human; details: 2E5 cells/100 μl with 50 μg/ml IMAB362
Experimental: Cells were harvested with PBS/5 mM EDTA or Trypsin/EDTA from an exponentially growing culture at 70-85% confluency. Cells were counted, centrifuged for 5 min (468 g) and the pellet was resuspended in FACS buffer (2% FCS, 0.1% sodium azide in PBS) adjusting the concentration to 2×10^6/ml. 100 μl cells were plated in round bottom 96-well plates and again centrifuged (5 min, 468 g). […] Then, 200 μl FACS buffer was added to each well and plates were centrifuged (5 min, 468 g). The supernatant was removed and washing was repeated. Secondary goat anti-human antibodies (FC specific, F(ab′)2 conjugated with APC (Dianova)) were diluted (1:100) in FACS buffer and 30 μl was added to each well. Plates were incubated for 30 min at 4° C. After incubation plates were washed again two times with 200 μl FACS buffer and the pellet was finally resuspended in 100 μl FACS buffer for measurement FACS Array Bioanalyzer (BD) according to GA_018_BD FACS Array bioanalyzer.

HPAFII = experiment: IMAB362-mediated ADCC assay; assay type: cell-based, human; details: at least 2 donors
MiaPaCa-2-LVT [6] = experiment: IMAB362-mediated CDC after cultivation with chemotherapeutic agents
Experimental: Dose response curves of 2 independent assays. MiaPaCa2-LVT were cultivated in medium, Gem (10 ng/ml) or GemOx (10 ng/ml Gem+100 ng/ml Ox) for 70 h.
CDC was performed as follows.
An additional positive control was generated at the end of the reaction by addition of 0.8% Triton X100 to a second medium control well causing total lysis. […] All samples were prepared (200 μl each) at the same time in a 96 well deepwell dilution plate. Samples were taken 3 times from each well by reverse pipetting to generate the triplicates in the assay plates.
To each well 10 μl PBS was added, except in the Triton-Lysis control wells. To each Triton-Lysis control well, 10 μl 0.8% Triton/PBS solution was added. Luciferin substrate solution was prepared (6114 μl Aqua bidest, 2496 μl HEPES (IM), 1998 μl 1×DPBS, 4992 μl D-Luciferin Stocksolution (12 mg/ml)). To each well 50 μl Luciferin substrate solution was added. […] Plates will be measured in a microplate reader. • Complement-dependent lysis was calculated using formula: Specific lysis (%)=100−[(RLUsample−RLUtriton)/(RLUHSCM−RLUtriton)×100]
Modifications for testing the pancreatic cancer cell lines: • Pancreatic cancer cells were transfected with luciferase RNA using optimized conditions.

[7] = Repeated dose toxicity study in mice; assay type: in vivo
Panc03.27 = experiment: IMAB362-mediated ADCC assay; assay type: cell-based, human; details: at least 2 donors
[8] = Homo sapiens, 96 h, 4 days exposure

**Q.** Which “sensitivity of cells to the agent” value (BxPC3-LVT) does the source give for `Nc1ccn([C@@H]2O[C@H](CO)[C@@H](O)C2(F)F)c(=O)n1` [gemcitabine, 4-amino-1-(2-deoxy-2,2-difluoro-β-D-erythro-pentofuranosyl)pyrimidin-2(1H)-one] here?
**A.** very sensitive

**Q.** And the IC50 (BxPC3-LVT; [8])?
**A.** ~2 ng/mL (≈ 7.6 nM)

**Q.** And the “sensitivity of cells to the agent” value (DANG [1])?
**A.** very sensitive

**Q.** What about the IC50 (DANG [1]; [8]) of the same compound?
**A.** ~1 ng/mL (≈ 3.8 nM)

**Q.** What about the “sensitivity of cells to the agent” value (MiaPaCa-2-LVT [2]) of the same compound?
**A.** less sensitive

**Q.** And the IC50 (MiaPaCa-2-LVT [2]; [8])?
**A.** 50 ng/mL (≈ 190 nM)

**Q.** And the IC50 (Capan1-LVT)?
**A.** ~1 ng/mL (≈ 3.8 nM)

**Q.** And the cell cycle effect (DANG [3])?
**A.** cell cycle arrest of cells in S-Phase

**Q.** With “IMAB362: chimeric IgG1 antibody directed against CLDN18.2, developed by Ganymed Pharmaceuticals AG” as the compound, how does the “ADCC EC50” value (HUP-T3) read?
**A.** n.m.

**Q.** What about the “ADCC EC50” value (HUP-T4) of the same compound?
**A.** n.m.

**Q.** And the “ADCC Max. lysis” value (HUP-T4)?
**A.** n.m.

**Q.** What about the “membrane staining (IF, native staining protocol)” value [4] of the same compound?
**A.** clear membrane staining

**Q.** And the “CLDN18 surface expression (FACS)” value ([5]; AsPC1)?
**A.** 0.14%

**Q.** What about the “CLDN18 surface expression (FACS)” value ([5]; BxPC3 (ATCC)) of the same compound?
**A.** 1.16%

**Q.** What about the “CLDN18 surface expression (FACS)” value ([5]; BxPC3 (ECACC)) of the same compound?
**A.** 0.90%

**Q.** What about the “CLDN18 surface expression (FACS)” value ([5]; CAPAN1) of the same compound?
**A.** 0.54%

**Q.** And the “CLDN18 surface expression (FACS)” value ([5]; CFPAC1)?
**A.** 0.55%

**Q.** And the “CLDN18 surface expression (FACS)” value ([5]; DANG)?
**A.** 1.19%

**Q.** What about the “CLDN18 surface expression (FACS)” value ([5]; HPAC) of the same compound?
**A.** 0.81%

**Q.** What about the “CLDN18 surface expression (FACS)” value ([5]; HPAFII) of the same compound?
**A.** 10.00%

**Q.** What about the “CLDN18 surface expression (FACS)” value ([5]; HUP-T3) of the same compound?
**A.** 0.23%

**Q.** And the “CLDN18 surface expression (FACS)” value ([5]; HUP-T4)?
**A.** 5.30%

**Q.** What about the “CLDN18 surface expression (FACS)” value ([5]; KP-2) of the same compound?
**A.** 0.54%

**Q.** And the “CLDN18 surface expression (FACS)” value ([5]; MiaPaCa2)?
**A.** 0.22%

**Q.** What about the “CLDN18 surface expression (FACS)” value ([5]; Panc01) of the same compound?
**A.** 65%

**Q.** What about the “CLDN18 surface expression (FACS)” value ([5]; Panc03.27) of the same compound?
**A.** 7.30%

**Q.** What about the “CLDN18 surface expression (FACS)” value ([5]; Panc04.03) of the same compound?
**A.** 1.38%

**Q.** And the “CLDN18 surface expression (FACS)” value ([5]; Panc05.04)?
**A.** 15%

**Q.** What about the “CLDN18 surface expression (FACS)” value ([5]; Patu8902) of the same compound?
**A.** 0.39%

**Q.** What about the “CLDN18 surface expression (FACS)” value ([5]; Patu8988T) of the same compound?
**A.** 6.00%

**Q.** What about the “CLDN18 surface expression (FACS)” value ([5]; SW1990) of the same compound?
**A.** 2.53%

**Q.** And the “CLDN18 surface expression (FACS)” value ([5]; Su86.86)?
**A.** 1.51%

**Q.** And the “CLDN18 surface expression (FACS)” value ([5]; Suit2)?
**A.** 0.41%

**Q.** And the “CLDN18 surface expression (FACS)” value ([5]; YPAC)?
**A.** 0.23%

**Q.** What about the “ADCC EC50” value (HPAFII) of the same compound?
**A.** n.m.

**Q.** And the “ADCC Max. lysis” value (HPAFII)?
**A.** n.m.

**Q.** What about the “max lyses (CDC), Gem treated versus medium” value (MiaPaCa-2-LVT [6]; MiaPaCa-2-LVT treated with Gem) of the same compound?
**A.** increase

**Q.** What about the “EC50 for IMAB362 specific lyses (CDC)” value (MiaPaCa-2-LVT [6]; MiaPaCa-2-LVT treated with Gem (10 ng/ml, 70 h)) of the same compound?
**A.** 4677 ng/mL

**Q.** What about the “EC50 for IMAB362 specific lyses (CDC)” value (MiaPaCa-2-LVT [6]; medium cultivated MiaPaCa-2-LVT) of the same compound?
**A.** 7665 ng/mL

**Q.** What about the gastric toxicity ([7]; any toxicity study) of the same compound?
**A.** no gastric toxicity

**Q.** And the “tolerability of repeated doses i.v.” value ([7]; weekly for 3 months, up to 400 mg/kg)?
**A.** well tolerated

**Q.** And the “ADCC EC50” value (Panc03.27)?
**A.** n.m.

**Q.** What about the “ADCC Max. lysis” value (Panc03.27) of the same compound?
**A.** n.m.
